Source: patent publication US6399672B1, “Oil soluble metal-containing compounds, compositions and methods” (Sartomer Technologies Co., Inc., priority 1999, dated 2002)

Experiment: Solubility of Zn salts in organic compounds
Conditions: mixed with organic monomers listed per example in b131-b162 (glycol di(meth)acrylates, trimethylolpropane triacrylate etc.)
Description: The organic compounds tested with the products of each of the preceding examples were as follows: […]

## zinc dimethacrylate
  solubility in organic compounds: insoluble
